Experiments:
HGGX6 [1] = H3.3 G34R paediatric high-grade glioma line; test: area under dose-response curve of % growth inhibition (log2 RLU vs DMSO / staurosporine), 1e-11 to 1e-4 M (% x log10 M); higher = more growth inhibition
Procedure, shortened: (§1)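 Patient-derived pHGG/DIPG cell lines and astrocytes were plated in 384-well plates coated with 1% Geltrex and treated in triplicate with a 10-point threefold dilution series whose mean top concentration was 35 μM, for 7 days (3 days for iAstro) at 37 °C and 5% CO2. CellTiter-Glo luminescence was log2-transformed and scaled on each plate to % activity between solvent and positive controls. Area under the curve came from the trapezoid rule applied to a fitted log-logistic curve, or to a smoothing spline where the sigmoid fit failed.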

DIPGX37 [2] = H3.3 K27M diffuse intrinsic pontine glioma line; test: as above
Procedure, shortened: as §1

SUDIPGXVII [3] = diffuse intrinsic pontine glioma line; test: as above
Procedure, shortened: as §1

HGGX39 [4] = paediatric high-grade glioma line; test: as above
Procedure, shortened: as §1

SUDIPGXIX [5] = diffuse intrinsic pontine glioma line; test: as above
Procedure, shortened: as §1

DIPGX7 [6] = H3.3 K27M diffuse intrinsic pontine glioma line; test: as above
Procedure, shortened: as §1

SUDIPGXXI = diffuse intrinsic pontine glioma line; test: as above
Procedure, shortened: as §1

SUDIPGXIII [7] = diffuse intrinsic pontine glioma line; test: as above
Procedure, shortened: as §1

HGGX2 [8] = paediatric high-grade glioma line; test: as above
Procedure, shortened: as §1

SUDIPGIV [9] = diffuse intrinsic pontine glioma line; test: as above
Procedure, shortened: as §1

HGGX42 [10] = H3.3 G34R paediatric high-grade glioma line; test: as above
Procedure, shortened: as §1

DIPGX29 = H3.3 K27M diffuse intrinsic pontine glioma line; test: as above
Procedure, shortened: as §1

SUDIPGVI [11] = diffuse intrinsic pontine glioma line; test: as above
Procedure, shortened: as §1

DIPGX9 [12] = diffuse intrinsic pontine glioma line; test: as above
Procedure, shortened: as §1

HABS [13] = astrocyte control; test: as above
Procedure, shortened: as §1

iAstro = astrocyte control; test: as above
Procedure, shortened: as §1

HGGX6 [14] = test: EC50 (inflection of fitted growth-inhibition curve) (log10 M)
Procedure, shortened: (§2)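 Treatment used a pin tool and a 10-point threefold dilution series, mean top concentration 35 μM, run in triplicate on patient-derived pHGG/DIPG cell lines and astrocyte controls in 1% Geltrex-coated 384-well plates. Plates were kept at 37 °C, 5% CO2 for 7 days (iAstro: 3 days). Log2-transformed CellTiter-Glo luminescence was scaled per plate to % activity between negative (solvent) and positive control wells and pooled before fitting. EC50 and maximal response (yFin) came from the three- or four-parameter log-logistic fit chosen by lowest AICc.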

DIPGX37 [15] = test: as above
Procedure, shortened: as §2

SUDIPGXVII [16] = test: as above
Procedure, shortened: as §2

HGGX39 [17] = test: as above
Procedure, shortened: as §2

SUDIPGXIX [18] = test: as above
Procedure, shortened: as §2

DIPGX7 [19] = test: as above
Procedure, shortened: as §2

SUDIPGXIII [20] = test: as above
Procedure, shortened: as §2

HGGX2 [21] = test: as above
Procedure, shortened: as §2

SUDIPGIV [22] = test: as above
Procedure, shortened: as §2

HGGX42 [23] = test: as above
Procedure, shortened: as §2

SUDIPGVI [24] = test: as above
Procedure, shortened: as §2

DIPGX9 [25] = test: as above
Procedure, shortened: as §2

HABS [26] = test: as above
Procedure, shortened: as §2

HGGX6 [27] = test: maximal growth inhibition (yFin) relative to DMSO / staurosporine; higher = more efficacious
Procedure, shortened: as §2

DIPGX37 [28] = test: as above
Procedure, shortened: as §2

SUDIPGXVII [29] = test: as above
Procedure, shortened: as §2

HGGX39 [30] = test: as above
Procedure, shortened: as §2

SUDIPGXIX [31] = test: as above
Procedure, shortened: as §2

DIPGX7 [32] = test: as above
Procedure, shortened: as §2

SUDIPGXIII [33] = test: as above
Procedure, shortened: as §2

HGGX2 [34] = test: as above
Procedure, shortened: as §2

SUDIPGIV [35] = test: as above
Procedure, shortened: as §2

HGGX42 [36] = test: as above
Procedure, shortened: as §2

SUDIPGVI [37] = test: as above
Procedure, shortened: as §2

DIPGX9 [38] = test: as above
Procedure, shortened: as §2

HABS [39] = test: as above
Procedure, shortened: as §2

SMILES: N#CN=C(NCCCCCCOc1ccc(Cl)cc1)Nc1ccncc1 [GMX-1778]
- area under dose-response curve (HGGX6 [1]): 288
- area under dose-response curve (DIPGX37 [2]): 311
- area under dose-response curve (SUDIPGXVII [3]): 245
- area under dose-response curve (HGGX39 [4]): 287
- area under dose-response curve (SUDIPGXIX [5]): 444
- area under dose-response curve (DIPGX7 [6]): 380
- area under dose-response curve (SUDIPGXXI): 587
- area under dose-response curve (SUDIPGXIII [7]): 335
- area under dose-response curve (HGGX2 [8]): 426
- area under dose-response curve (SUDIPGIV [9]): 333
- area under dose-response curve (HGGX42 [10]): 315
- area under dose-response curve (DIPGX29): 465
- area under dose-response curve (SUDIPGVI [11]): 354
- area under dose-response curve (DIPGX9 [12]): 267
- area under dose-response curve (HABS [13]): 275
- area under dose-response curve (iAstro): 314
- EC50 (log10 M) (HGGX6 [14]): -7.85
- EC50 (log10 M) (DIPGX37 [15]): -8.03
- EC50 (log10 M) (SUDIPGXVII [16]): -7.44
- EC50 (log10 M) (HGGX39 [17]): -7.85
- EC50 (log10 M) (SUDIPGXIX [18]): -7.5
- EC50 (log10 M) (DIPGX7 [19]): -7.31
- EC50 (log10 M) (SUDIPGXIII [20]): -7.54
- EC50 (log10 M) (HGGX2 [21]): -8.25
- EC50 (log10 M) (SUDIPGIV [22]): -7.21
- EC50 (log10 M) (HGGX42 [23]): -7.48
- EC50 (log10 M) (SUDIPGVI [24]): -7.79
- EC50 (log10 M) (DIPGX9 [25]): -8.21
- EC50 (log10 M) (HABS [26]): -7.62
- maximal growth inhibition (HGGX6 [27]): 74.7%
- maximal growth inhibition (DIPGX37 [28]): 77.2%
- maximal growth inhibition (SUDIPGXVII [29]): 71.3%
- maximal growth inhibition (HGGX39 [30]): 74.6%
- maximal growth inhibition (SUDIPGXIX [31]): 127%
- maximal growth inhibition (DIPGX7 [32]): 114%
- maximal growth inhibition (SUDIPGXIII [33]): 94.5%
- maximal growth inhibition (HGGX2 [34]): 103%
- maximal growth inhibition (SUDIPGIV [35]): 104%
- maximal growth inhibition (HGGX42 [36]): 90.6%
- maximal growth inhibition (SUDIPGVI [37]): 93.6%
- maximal growth inhibition (DIPGX9 [38]): 63.3%
- maximal growth inhibition (HABS [39]): 76%
